Data reported in PubChem BioAssay AID1963961 (Molecular Pharmacology Branch, DTP, NCI, 2024).
pIC50: −log10 of the molar value.

Tested on: K98450-129-R-PDC multicell spheroids, viability
Assay: Anticancer human tumor K98450-129-R-PDC patient-derived colon adenocarcinoma cell line growth inhibition [PI3K]
Conditions: for pIC50: curve of first compound; for viability, T/C: stronger effect = lower value; active = viability on the fitted dose curve at most 10% of control; inactive = the rest
Summary of the method: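 Combination activity was assessed by viability in multicellular tumor spheroids carrying HUVEC and MSC components. Agents were tested with PI3K inhibitors from a Cmax-based top dose (or 10 microM) downward in half-log increments.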

[1] = second compound 0.0316 µM, first compound 0.0316 µM
[2] = second compound 0.0316 µM, first compound 0.1 µM
[3] = second compound 0.0316 µM, first compound 0.316 µM
[4] = second compound 0.0316 µM, first compound 1 µM
[5] = second compound 0.0316 µM, first compound 3.16 µM
[6] = second compound 0.0316 µM, first compound 10 µM
[7] = second compound 0.1 µM, first compound 0.0316 µM
[8] = second compound 0.1 µM, first compound 0.1 µM
[9] = second compound 0.1 µM, first compound 0.316 µM
[10] = second compound 0.1 µM, first compound 1 µM
[11] = second compound 0.1 µM, first compound 3.16 µM
[12] = second compound 0.1 µM, first compound 10 µM
[13] = second compound 0.316 µM, first compound 0.0316 µM
[14] = second compound 0.316 µM, first compound 0.1 µM
[15] = second compound 0.316 µM, first compound 0.316 µM
[16] = second compound 0.316 µM, first compound 1 µM
[17] = second compound 0.316 µM, first compound 3.16 µM
[18] = second compound 0.316 µM, first compound 10 µM
[19] = second compound 1 µM, first compound 0.0316 µM
[20] = second compound 1 µM, first compound 0.1 µM
[21] = second compound 1 µM, first compound 0.316 µM
[22] = second compound 1 µM, first compound 1 µM
[23] = second compound 1 µM, first compound 3.16 µM
[24] = second compound 1 µM, first compound 10 µM
[25] = second compound 3.16 µM, first compound 0.0316 µM
[26] = second compound 3.16 µM, first compound 0.1 µM
[27] = second compound 3.16 µM, first compound 0.316 µM
[28] = second compound 3.16 µM, first compound 1 µM
[29] = second compound 3.16 µM, first compound 3.16 µM
[30] = second compound 3.16 µM, first compound 10 µM
[31] = second compound 10 µM, first compound 0.0316 µM
[32] = second compound 10 µM, first compound 0.1 µM
[33] = second compound 10 µM, first compound 0.316 µM
[34] = second compound 10 µM, first compound 1 µM
[35] = second compound 10 µM, first compound 3.16 µM
[36] = second compound 10 µM, first compound 10 µM
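Also: spheroids exposed to agents for seven days before read-out.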

CC1(C)CCC(Nc2ncc(C(F)(F)F)c(-c3c[nH]c4c(P(C)(C)=O)c(C#N)ccc34)n2)CN1 (stereo unspecified) + Cc1nc(NC(=O)N2CCCC2C(N)=O)sc1-c1ccnc(C(C)(C)C(F)(F)F)c1
< 5.00: pIC50 (second compound 0.0316 µM) | pIC50 (second compound 0.1 µM) | pIC50 (second compound 0.316 µM) | pIC50 (second compound 1 µM) | pIC50 (second compound 3.16 µM) | pIC50 (second compound 10 µM)
inactive: viability, T/C [1] 118% | viability, T/C [2] 101% | viability, T/C [3] 94.7% | viability, T/C [4] 68.7% | viability, T/C [5] 69.8% | viability, T/C [6] 64.6% | viability, T/C [7] 116% | viability, T/C [8] 104% | viability, T/C [9] 87.2% | viability, T/C [10] 67.4% | viability, T/C [11] 71.1% | viability, T/C [12] 67.6% | viability, T/C [13] 104% | viability, T/C [14] 102% | viability, T/C [15] 84.7% | viability, T/C [16] 69% | viability, T/C [17] 69.7% | viability, T/C [18] 66.7% | viability, T/C [19] 103% | viability, T/C [20] 96.8% | viability, T/C [21] 85.8% | viability, T/C [22] 69.6% | viability, T/C [23] 70% | viability, T/C [24] 63.4% | viability, T/C [25] 88.1% | viability, T/C [26] 95.5% | viability, T/C [27] 83% | viability, T/C [28] 67.8% | viability, T/C [29] 67.4% | viability, T/C [30] 56.5% | viability, T/C [31] 81.6% | viability, T/C [32] 85.5% | viability, T/C [33] 70% | viability, T/C [34] 60.8% | viability, T/C [35] 62.4% | viability, T/C [36] 50.5%

CC(Cn1ccc(-c2ccc(C#N)c(Cl)c2)n1)NC(=O)c1cc(C(C)O)[nH]n1 (stereo unspecified) + Cc1nc(NC(=O)N2CCCC2C(N)=O)sc1-c1ccnc(C(C)(C)C(F)(F)F)c1
< 5.00: pIC50 (second compound 0.0316 µM) | pIC50 (second compound 0.1 µM) | pIC50 (second compound 0.316 µM) | pIC50 (second compound 1 µM) | pIC50 (second compound 3.16 µM) | pIC50 (second compound 10 µM)
inactive: viability, T/C [1] 103% | viability, T/C [2] 98.6% | viability, T/C [3] 107% | viability, T/C [4] 105% | viability, T/C [5] 99.8% | viability, T/C [6] 103% | viability, T/C [7] 108% | viability, T/C [8] 99.3% | viability, T/C [9] 104% | viability, T/C [10] 94.2% | viability, T/C [11] 99.5% | viability, T/C [12] 103% | viability, T/C [13] 104% | viability, T/C [14] 94.4% | viability, T/C [15] 99.3% | viability, T/C [16] 98.6% | viability, T/C [17] 102% | viability, T/C [18] 103% | viability, T/C [19] 86.4% | viability, T/C [20] 101% | viability, T/C [21] 98.3% | viability, T/C [22] 88.8% | viability, T/C [23] 98.2% | viability, T/C [24] 84.8% | viability, T/C [25] 85.1% | viability, T/C [26] 81.4% | viability, T/C [27] 86.8% | viability, T/C [28] 84% | viability, T/C [29] 94% | viability, T/C [30] 85.8% | viability, T/C [31] 75.6% | viability, T/C [32] 72.1% | viability, T/C [33] 80.3% | viability, T/C [34] 81.1% | viability, T/C [35] 80.8% | viability, T/C [36] 74.3%

CC1(C)CCC(Nc2ncc(C(F)(F)F)c(-c3c[nH]c4c(P(C)(C)=O)c(C#N)ccc34)n2)CN1 (stereo unspecified) + COc1c(OCCCN2CCOCC2)ccc2c3n(c(=NC(=O)c4cnc(N)nc4)nc12)CCN3
5.18: pIC50 (second compound 0.0316 µM)
5.33: pIC50 (second compound 0.316 µM)
5.03: pIC50 (second compound 0.1 µM)
< 5.00: pIC50 (second compound 0.00316 µM) | pIC50 (second compound 0.01 µM)
7.50: pIC50 (second compound 1 µM)
inactive: viability, T/C (second compound 0.00316 µM, first compound 0.0316 µM) 104% | viability, T/C (second compound 0.00316 µM, first compound 0.1 µM) 99.5% | viability, T/C (second compound 0.00316 µM, first compound 0.316 µM) 66.3% | viability, T/C (second compound 0.00316 µM, first compound 1 µM) 60.1% | viability, T/C (second compound 0.00316 µM, first compound 3.16 µM) 60.3% | viability, T/C (second compound 0.00316 µM, first compound 10 µM) 52.9% | viability, T/C (second compound 0.01 µM, first compound 0.0316 µM) 113% | viability, T/C (second compound 0.01 µM, first compound 0.1 µM) 103% | viability, T/C (second compound 0.01 µM, first compound 0.316 µM) 67.3% | viability, T/C (second compound 0.01 µM, first compound 1 µM) 61.6% | viability, T/C (second compound 0.01 µM, first compound 3.16 µM) 67.3% | viability, T/C (second compound 0.01 µM, first compound 10 µM) 48.8% | viability, T/C [1] 94.6% | viability, T/C [2] 77.5% | viability, T/C [3] 68.5% | viability, T/C [4] 69.4% | viability, T/C [5] 61.6% | viability, T/C [6] 42.7% | viability, T/C [7] 79.6% | viability, T/C [8] 86.6% | viability, T/C [9] 63.7% | viability, T/C [10] 69% | viability, T/C [11] 68.7% | viability, T/C [12] 46.1% | viability, T/C [13] 58.3% | viability, T/C [14] 64% | viability, T/C [15] 59% | viability, T/C [16] 54.7% | viability, T/C [17] 57.8% | viability, T/C [18] 37.3% | viability, T/C [19] 51.6% | viability, T/C [20] 48.9% | viability, T/C [21] 48.8% | viability, T/C [22] 42.7% | viability, T/C [23] 50.7% | viability, T/C [24] 27.2%
